Results taken from patent US20060062865A1, “Tyrosinase inhibitor and method for preparation” (priority 2004, published 2006).

Tested on: mushroom tyrosinase
Experiment: Mushroom tyrosinase in vitro enzyme assay (absorbance at 492 nm)
Assay type: biochemical
Conditions: in vitro tyrosinase (mushroom) enzyme activity
Protocol: Enzyme assay. The mushroom tyrosinase was used for the bioassay. It was purchased from Sigma Chemical Co. (St. Louis, Mo.). The assay was performed by adding 200 microliters of reaction cocktail (mixture of potassium phosphate buffer 50 mM, pH 6.5, 10 ml; 1 mM tyrosine solution, 10 ml and deionized water, 9 ml) and 10 microliters of tested extract dissolved in ethanol at concentration of 1 mg/ml followed by 10 microliters of tyrosinase (1000 units/ml) to 96-well plate. After 2 min incubation at room temperature, the initial absorbance was read at 492 nm on the plate reader. Final absorbance values were read after 10 minutes. The enzyme activity was calculated from the differential values for absorbance and then converted into inhibitory activity. Kojic acid was used as standard at a concentration of 1 mg/ml dissolved in 95% ethanol.

## O=c1cc(CO)occ1O [Kojic acid]
Sample 1 mg/ml in ethanol, tyrosine substrate, Table 1 experiment
  Inhibition at 1 mg/ml: 88%
Sample 1 mg/ml, extracts of different plant parts, Table 2 experiment
  Inhibition at 1 mg/ml: 86%
